“And” between values parts separate entries of the source, which are not always exact repeats. Equal values may be shown once. Read-outs that look alike come from different tables or passages of the source.
Assays:
[1] = molecular target: isolated bovine heart complex I (Bos taurus, UniProt P03887+P03898+P17694+P42026); assay: NADH:decylubiquinone oxidoreduction by isolated complex I; assay type: biochemical; conditions: for HillSlope (best fit value) / LogIC50 (best fit value): Prism fit; for HillSlope (best fit value): no std. error; for remaining activity at 100 µM: inhibitor 0.10 mM; for remaining activity at 500 µM: inhibitor 0.50 mM; for remaining activity at 1000 µM: inhibitor 1.00 mM; for remaining activity at 5000 µM: inhibitor 5.00 mM; for LogIC50 (best fit value): log of IC50 in mM
Chain of isolated bovine heart complex I (P42026 38-216): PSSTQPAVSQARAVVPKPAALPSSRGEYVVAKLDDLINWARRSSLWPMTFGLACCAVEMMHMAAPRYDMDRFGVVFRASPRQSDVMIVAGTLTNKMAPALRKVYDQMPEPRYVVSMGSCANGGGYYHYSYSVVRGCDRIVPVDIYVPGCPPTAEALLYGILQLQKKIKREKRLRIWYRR
Chain of isolated bovine heart complex I (P17694 34-463): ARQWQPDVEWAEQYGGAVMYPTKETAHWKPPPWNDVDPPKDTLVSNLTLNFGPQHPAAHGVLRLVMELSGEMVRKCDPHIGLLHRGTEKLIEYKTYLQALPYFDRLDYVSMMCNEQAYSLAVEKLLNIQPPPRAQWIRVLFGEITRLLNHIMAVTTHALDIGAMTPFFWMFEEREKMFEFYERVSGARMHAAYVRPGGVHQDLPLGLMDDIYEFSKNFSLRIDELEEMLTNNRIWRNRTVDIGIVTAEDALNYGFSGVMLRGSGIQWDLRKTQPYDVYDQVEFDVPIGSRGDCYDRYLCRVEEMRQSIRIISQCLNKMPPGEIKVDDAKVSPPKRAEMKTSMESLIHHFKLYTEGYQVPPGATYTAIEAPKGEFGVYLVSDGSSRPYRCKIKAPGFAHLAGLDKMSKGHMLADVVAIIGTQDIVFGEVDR
Chain of isolated bovine heart complex I (P03898 whole entry): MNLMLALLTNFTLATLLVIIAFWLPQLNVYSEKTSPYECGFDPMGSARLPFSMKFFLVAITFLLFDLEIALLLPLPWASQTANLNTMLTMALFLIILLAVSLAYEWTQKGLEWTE
Chain of isolated bovine heart complex I (P03887 whole entry): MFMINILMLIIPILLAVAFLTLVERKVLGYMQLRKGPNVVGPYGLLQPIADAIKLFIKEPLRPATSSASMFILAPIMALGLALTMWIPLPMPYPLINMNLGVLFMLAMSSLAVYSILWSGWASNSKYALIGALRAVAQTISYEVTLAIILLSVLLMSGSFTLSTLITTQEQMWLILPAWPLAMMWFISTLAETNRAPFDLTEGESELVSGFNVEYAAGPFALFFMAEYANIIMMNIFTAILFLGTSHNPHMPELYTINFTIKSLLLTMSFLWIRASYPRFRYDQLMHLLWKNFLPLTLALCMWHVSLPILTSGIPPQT
Experimental: (§1) Complex I and mitochondrial membranes were prepared from Bos taurus (bovine) heart. Intact mitochondria were isolated from rat liver and mouse heart and liver. Membranes were prepared from mouse heart mitochondria by 5 s bursts of sonication at 4 °C and collected by centrifugation (75,000 × g, 1 h).
Assays were performed at 32 °C in a SpectraMax 96-well plate reader. NADH:decylubiquinone oxidoreduction by complex I at 0.5 μg mL^−1 was measured in 20 mM Tris-HCl (pH 7.2), 0.15 % soy bean asolectin (Avanti Polar Lipids), and 0.15 % 3-((3-cholamidopropyl)dimethylammonium)-1-propanesulfonate (CHAPS, Merck Chemicals Ltd), with 200 μM decylubiquinone and 200 μM NADH, and monitored using ε340–380(NADH) = 4.81 mM^−1 cm^−1 [23]. Catalysis was initiated by addition of NADH and maximal rates determined by linear regression. NADH:O2 oxidoreduction by membranes was measured similarly but using 5 μg mL^−1 membranes in 10 mM Tris-HCl (pH 7.4) and 250 mM sucrose using 200 μM NADH and supplemented with 0.15 mM horse heart cytochrome c (Sigma-Aldrich Ltd.). Succinate:O2 oxidoreduction was measured using 40 μg mL^−1 membranes in 5 mM succinate in 10 mM Tris-HCl (pH 7.4) as described previously. Control experiments included NaCl (to match the ionic strength) or DMSO, as appropriate.
Experimental values are reported as mean averages ± standard deviation (SD) of technical replicates for large sample sizes and mean averages ± standard error of the mean (SEM) of technical replicates for small sample sizes. Data were analyzed by the unpaired two-tailed Student’s t test. IC50 values were determined using the standard dose-effect relationship (activity (%) = 100 × IC50 / (IC50 + [inhibitor]^m) with the Hill Slope (m) set to unity for purified complex I) and are reported with 95 % confidence intervals.

rat liver mitochondria = assay: ADP-stimulated rotenone-sensitive OCR in isolated rat liver mitochondria; assay type: biochemical; parameters: rotenone sensitive OCR after ADP stimulation, individual replicates / rotenone sensitive OCR after ADP stimulation, average: unit not given here; conditions: for rotenone sensitive OCR after ADP stimulation, % of control, average / rotenone sensitive OCR after ADP stimulation, average: average of replicates; for rotenone sensitive OCR after ADP stimulation, % of control, individual replicates / rotenone sensitive OCR after ADP stimulation, individual replicates: replicate 1-5
Experimental: as §1
Isolated mitochondria were monitored using a Seahorse XF96 extracellular flux analyzer at 32 °C. Mouse heart mitochondria, and mouse and rat liver mitochondria were plated into XF96 plates at 4 and 16–20 μg per well, respectively, in 220 mM mannitol, 70 mM sucrose, 10 mM KH2PO4, 5 mM MgCl2, 1 mM EGTA, 0.2 % fatty acid-free BSA, and 2 mM HEPES (pH 7.4 at 37 °C) with 10 mM glutamate and 10 mM malate and adhered by centrifugation (2000 × g, 20 min, 4 °C). The medium was supplemented with a further 5 mM glutamate and 5 mM malate and the mitochondria incubated for 15 min. Then two baseline readings were taken before the biguanides were added at IC50/5. Biguanides were allowed to accumulate for 15–20 min before respiration was […] by the addition of 4 mM ADP. Rotenone (2 μM) was added at the end of the experiment. Data from wells with failed port injections were excluded from the analyses. The RCR values (state III versus state IV respiration) were 3.4, 4.8, and 4.6 for mouse heart, rat liver, and mouse liver, respectively.

permeabilized MDBK cells = assay: ADP-stimulated rotenone-sensitive OCR in permeabilized MDBK cells; assay type: cell-based, Bos taurus; parameters: rotenone sensitive OCR after ADP stimulation, average / rotenone sensitive OCR after ADP stimulation: unit not given here; conditions: for rotenone sensitive OCR after ADP stimulation, % of control, average / rotenone sensitive OCR after ADP stimulation, average / rotenone sensitive OCR after ADP stimulation / rotenone sensitive OCR after ADP stimulation, % of control: MDBK permeabilised cells; for rotenone sensitive OCR after ADP stimulation, % of control, average / rotenone sensitive OCR after ADP stimulation, average: average of replicates; for rotenone sensitive OCR after ADP stimulation / rotenone sensitive OCR after ADP stimulation, % of control: individual replicates
Experimental: For permeabilized cell experiments, cells were seeded into XF96 plates at 0.9–1.1 × 10^4 per well and incubated for 48 h at 37 °C in 5 % CO2. Then, the growth medium was exchanged for assay buffer containing 3 nM plasma membrane permeabilizer ‘PMP’ (Seahorse Biosciences Inc.), 10 mM glutamate, 10 mM malate, 220 mM mannitol, 70 mM sucrose, 10 mM KH2PO4, 5 mM MgCl2, 1 mM EGTA, 0.2 % fatty acid-free bovine serum albumin (BSA), and 2 mM HEPES (pH 7.4 at 37 °C). […] The biguanides were allowed to accumulate for 30 min, then respiration was […] by the addition of 4 mM ADP. Rotenone was added (2 μM) at the end of the experiment.
Rotenone-sensitive OCRs were calculated by subtracting the rotenone-insensitive rates (determined at the end of the experiment). OCRs were normalized by dividing by the OCR recorded immediately prior to the addition of biguanide. For rate of uptake calculations, the OCRs at time points after biguanide addition were divided by the OCRs at the same time points in control experiments. Data from wells with failed port injections were excluded from the analyses. The respiratory control ratio (RCR) values (state III versus state IV respiration) were ~11 and ~6 for permeabilized MDBK and 143B cells, respectively.

[2] = Octanol/PBS partition coefficient, shake-flask method; assay type: physicochemical; conditions: 32 °C, pH 7.4, n = 3
Experimental: Octanol/PBS partition coefficients were measured by the shake-flask method at 32 °C, pH 7.4.

[3] = bovine heart purified mitochondrial complex I
[4] = bovine heart purified mitochondrial complex I, Prism log(inhibitor) vs. response fit, Bottom 0, Top 100, read-out: IC50 (best fit value)
[5] = bovine heart purified mitochondrial complex I, read-out: average % (rate, % of no-inhibitor control)

SMILES | HillSlope (best fit value) [1, 3] | IC50 [1, 4] | remaining activity at 100 µM [1, 5] | remaining activity at 500 µM [1, 5] | remaining activity at 1000 µM [1, 5] | remaining activity at 5000 µM [1, 5] | LogIC50 (best fit value) [1, 3] | rotenone sensitive OCR after ADP stimulation, % of control, average (rat liver mitochondria) | rotenone sensitive OCR after ADP stimulation, average (rat liver mitochondria) | rotenone sensitive OCR after ADP stimulation, % of control, individual replicates (rat liver mitochondria) | rotenone sensitive OCR after ADP stimulation, individual replicates (rat liver mitochondria) | rotenone sensitive OCR after ADP stimulation, % of control, average (permeabilized MDBK cells) | rotenone sensitive OCR after ADP stimulation, average (permeabilized MDBK cells) | rotenone sensitive OCR after ADP stimulation, % of control, average (permeabilized MDBK cells; biguanide at IC50/5) | rotenone sensitive OCR after ADP stimulation, average (permeabilized MDBK cells; biguanide at IC50/5) | rotenone sensitive OCR after ADP stimulation (permeabilized MDBK cells; biguanide at IC50/5) | rotenone sensitive OCR after ADP stimulation, % of control (permeabilized MDBK cells; biguanide at IC50/5) | logP [2] | P (partition coefficient) [2] | also measured
NC(N)=NC(N)=NCCc1ccc(Cl)cc1 [compound 1, 2-[2-(4-chlorophenyl)ethyl]-1-(diaminomethylidene)guanidine] | 1 | 195 µM | 67.7% | 28.6% | 15.1% | 1.32% | -0.7098 | 55.19 % of control | 15.13 | 67.97 % of control and 49.70 % of control and 53.49 % of control and 49.59 % of control | 18.64 and 13.63 and 14.67 and 13.60 | 20.60 % of control | 58.06 | 20.60 % of control | 58.06 | 88.38 and 76.77 and 21.79 and 44.14 and 38.29 and 53.63 and 83.42 | 31.36 % of control and 27.24 % of control and 7.73 % of control and 15.66 % of control and 13.59 % of control and 19.03 % of control and 29.60 % of control | 0.149 |  | remaining activity at 50 µM ([1]; bovine heart purified mitochondrial complex I, inhibitor 0.05 mM, read-out: average % (rate, % of no-inhibitor control)): 78.7%; remaining activity at 250 µM ([1]; bovine heart purified mitochondrial complex I, inhibitor 0.25 mM, read-out: average % (rate, % of no-inhibitor control)): 44.8%; remaining activity at 2500 µM ([1]; bovine heart purified mitochondrial complex I, inhibitor 2.50 mM, read-out: average % (rate, % of no-inhibitor control)): 2.59%
N=C(N)NC(N)=Nc1ccccc1 [compound 2, phenyl biguanide] | 1 |  |  |  |  |  | -0.3388 | 93.19 % of control | 25.55 | 95.39 % of control and 93.60 % of control and 90.74 % of control and 93.05 % of control | 26.15 and 25.66 and 24.88 and 25.51 | 101.81 % of control | 286.92 | 101.81 % of control | 286.92 | 411.58 and 226.55 and 268.24 and 253.43 and 274.79 | 146.05 % of control and 80.39 % of control and 95.18 % of control and 89.93 % of control and 97.51 % of control | -0.627 | 0.236 | IC50 [1]: 458 µM
NC(N)=NC(N)=NCc1ccccc1 [compound 3, 2-benzyl-1-(diaminomethylidene)guanidine] | 1 | 567 µM | 80% | 52.1% | 41% | 15.6% | -0.2463 | 24.02 % of control | 6.59 | 20.74 % of control and 19.21 % of control and 31.06 % of control and 25.09 % of control | 5.69 and 5.27 and 8.51 and 6.88 | 12.04 % of control | 33.92 | 12.04 % of control | 33.92 | 60.28 and 86.89 and -11.73 and 15.23 and 8.14 and 44.74 | 21.39 % of control and 30.83 % of control and -4.16 % of control and 5.40 % of control and 2.89 % of control and 15.88 % of control | -0.734 | 0.184 | remaining activity at 200 µM ([1]; bovine heart purified mitochondrial complex I, inhibitor 0.20 mM, read-out: average % (rate, % of no-inhibitor control)): 65.6%; remaining activity at 2000 µM ([1]; bovine heart purified mitochondrial complex I, inhibitor 2.00 mM, read-out: average % (rate, % of no-inhibitor control)): 27.6%; remaining activity at 10000 µM ([1]; bovine heart purified mitochondrial complex I, inhibitor 10.00 mM, read-out: average % (rate, % of no-inhibitor control)): 4.7%; inhibition of OCR (permeabilized MDBK cells; MDBK cells, 30 min, data used for Fig. 4c matrix concentration estimate): exceeded 90%; accumulation into mitochondria (matrix concentration relative to extracellular medium) (permeabilized MDBK cells; permeabilized MDBK cells, after 30 min of biguanide exposure, IC50/5): more than 200 fold
[H]/N=C(\N/C(=N/[H])Nc1ccc(Cl)cc1)NC(C)C [proguanil, reference compound] |  |  |  |  |  |  |  | 91.40 % of control | 25.06 | 82.64 % of control and 94.24 % of control and 97.33 % of control | 22.66 and 25.84 and 26.69 | 105.17 % of control | 296.39 | 105.17 % of control | 296.39 | 272.71 and 215.77 and 253.06 and 330.67 and 409.72 | 96.77 % of control and 76.56 % of control and 89.79 % of control and 117.34 % of control and 145.38 % of control |  |  | 
